The experiment has as its system 4T1 cells or B16 F10 cells. As to the kind of experiment: Cytotoxic efficacy using MTS assay. The experiment is classed as cell-based. The note with it: lower concentrations, 72 h. Here is the method: Cytotoxic Efficacy of DNTs Using MTS Assay: 5×10^3 4T1 cells or B16 F10 cells per well were seeded in a 96 well plate and left overnight to adhere. The cells were serum starved for 6 h by incubating them in serum free basal medium. The cells were incubated with either free drugs or DNTs of equivalent free drug concentrations for 72 h. The cells were washed with PBS and the medium was replaced with phenol red free DMEM followed by incubation in a mixture of MTS and PMS (1:20) solution for 30 min. Absorbance was measured at 480 nm using a BioTek plate reader. The data was analyzed using graph pad.
(Tetrazolium dyes change colour on reduction, which living cells bring about.)

This is an account of results in patent US20210113659A1, “ENGINEERED THERAPEUTIC TO ENHANCE CYTOTOXIC ACTIVITY AND PHAGOCYTOSIS IN TUMOR ASSOCIATED MACROPHAGES” (University of Massachusetts, priority 2019, published 2021).

SMILES strings stand for the structures.

As to `CC1(N)CCN(c2cnc(-c3cccc(Cl)c3Cl)c(N)n2)CC1.Cl.Cl` [SHP099, 6-(4-Amino-4-methylpiperidin-1-yl)-3-(2,3-dichlorophenyl)pyrazin-2-amine dihydrochloride], the “effect on the viability of cancer cells” value is “did not have a significant effect”.
